The results in this text go back to PMC9889419 (Pharmacological Reports, 2022).

Where a name gives a salt, the structure may show the parent alone.

The target of data set [1] is T1, A1 (Homo sapiens, UniProt P30542).
T1 construct: purchased Eurofins CEREP
The data set can be described thus: Radioligand binding. The note with it: 100 μM.

The target of data set [2] is T2, ETA (Homo sapiens, UniProt P25101).
T2 construct: purchased Eurofins CEREP
The data set can be described thus: Radioligand binding. As to conditions: 100 μM.

Data set [3] deals with T3, H2 (Homo sapiens, UniProt P25021).
T3 construct: purchased Eurofins CEREP
The data set can be described thus: Radioligand binding. The note with it: 100 μM.

Data set [4] concerns TNF-α. The data set can be described thus: Radioligand binding. As to conditions: 100 μM.
Data set [5] addresses T4, β1 (Homo sapiens, UniProt P08588).
T4 construct: purchased Eurofins CEREP
The data set can be described thus: Radioligand binding. As to conditions: 100 μM.

Data set [6] addresses T5, VPAC1 (VIP1) (Homo sapiens, UniProt P32241).
T5 construct: purchased Eurofins CEREP
The experiment in a line: Radioligand binding. As to conditions: 100 μM.

Data set [7] addresses T6, β2 (Homo sapiens, UniProt P07550).
T6 construct: purchased Eurofins CEREP
The experiment in a line: Radioligand binding. The note with it: 100 μM.

Data set [8] concerns the target T7, EP2 (Homo sapiens, UniProt P43116).
T7 construct: purchased Eurofins CEREP
The experiment in a line: Radioligand binding. The note with it: 100 μM.

Data set [9] deals with T8, BZD (peripheral) (Rattus norvegicus, UniProt P16257).
T8 construct: purchased Eurofins CEREP
The experiment in a line: Radioligand binding. The note with it: 100 μM.

The target of data set [10] is T9, GAL1 (Homo sapiens, UniProt P47211).
T9 construct: purchased Eurofins CEREP
The experiment in a line: Radioligand binding. The note with it: 100 μM.

Data set [11] deals with T10, δ (DOP) (Homo sapiens, UniProt P41143).
T10 construct: purchased Eurofins CEREP
The experiment in a line: Radioligand binding. The note with it: 100 μM.

The target of data set [12] is T11, PAC1 (PACAP) (Homo sapiens, UniProt P41586).
T11 construct: purchased Eurofins CEREP
The data set can be described thus: Radioligand binding. The note with it: 100 μM.

Data set [13] deals with T12, MC4 (Homo sapiens, UniProt P32245).
T12 construct: purchased Eurofins CEREP
The experiment in a line: Radioligand binding. The note with it: 100 μM.

For data set [14], the system named is rats. The data set can be described thus: Whole body plethysmography. In kind it is in vivo. As to conditions: 6, 10 and 20 mg/kg ip, 4-h test period. The procedure:
Whole body plethysmography. The method, which detects the effects of a test substance on airway function, follows that described by Chong et al. and by Hamelmann et al.. Rats were placed individually in a single chamber plethysmograph (Buxco) in which they can move and drink freely. After a habituation period of 150 min, the following parameters were recorded: inspiratory time, expiratory time, peak inspiratory flow, peak expiratory flow, tidal volume, respiratory rate, relaxation time, pause, enhanced pause. All data generated were acquired using specialized EMKA Technologies software (lOX version 1.7.0; ANALYST version 1.49), connected to Buxco plethysmographic equipment. Recordings were taken for 30 min before and for 4 h after administration of the test substance. […] Each time point represented the mean value of a 2-min block (recorded 1 min before and 1 min after each time point). In cases where the data can be considered invalid, for example if recorded during a period of sniffing thereby causing a brief period of increased respiratory frequency, the retained values were those as close as possible to the theoretical time point. Results were expressed as absolute values and as percent changes from initial mean values (T0). […] Each test substance was evaluated at 3 doses (6 mg/kg, 10 mg/kg, and 20 mg/kg), administered ip, and compared with a vehicle control group. […]

Data set [15] can be described thus: in vivo. As to conditions: rat, ip.
Description: The assays were carried out within the Epilepsy Therapy Screening Program (ETSP, previously known as the Anticonvulsant Screening Program, ASP), Epilepsy Branch, National Institute of Neurological and Communicative Disorders and Stroke, National Institutes of Health in Rockville, MD, USA [23].
The obtained compounds were screened for antiseizure activity and neurotoxicity in vivo within the Epilepsy Therapy Screening Program (ETSP, previously known as the Anticonvulsant Screening Program, ASP), Epilepsy Branch, National Institute of Neurological and Communicative Disorders and Stroke, National Institutes of Health in Rockville, MD, USA [23].
In data set [16] the test system is mice. The experiment in a line: Writhing test. In kind it is in vivo. The note with it: 30 mg/kg. The procedure:
Inflammatory acute pain—writhing test. In this test, mice were placed individually into glass beakers and were allowed to habituate for the next 30 min. Then, each mouse was injected with tested compound, dissolved in saline (at a dose 30 mg/kg) or vehicle, and then placed back into the glass beaker for 30 min. To induce inflammatory pain, 0.9% acetic acid solution (Polskie Odczynniki Chemiczne, Poland) prepared in saline was injected by the intraperitoneal route. Mice were placed in the beakers again and were observed continuously for the next 30 min. Stereotypical writhes (lengthwise constrictions of the torso with a concomitant concave arching of the back) were counted over this period in drug-treated and control mice.

Data set [17] deals with T13, hNav1.2 sodium channel (Homo sapiens, UniProt Q99250).
T13 construct: host or cells: CHO cells
The data set can be described thus: Nav channel electrophysiology (IonWorks Quattro). In kind it is cell-based. In general terms: In patch-clamp work, channel activity is measured electrically.

In general, IC50 refers to the concentration needed to halve the response being measured.

T13 sequence (Q99250 whole entry): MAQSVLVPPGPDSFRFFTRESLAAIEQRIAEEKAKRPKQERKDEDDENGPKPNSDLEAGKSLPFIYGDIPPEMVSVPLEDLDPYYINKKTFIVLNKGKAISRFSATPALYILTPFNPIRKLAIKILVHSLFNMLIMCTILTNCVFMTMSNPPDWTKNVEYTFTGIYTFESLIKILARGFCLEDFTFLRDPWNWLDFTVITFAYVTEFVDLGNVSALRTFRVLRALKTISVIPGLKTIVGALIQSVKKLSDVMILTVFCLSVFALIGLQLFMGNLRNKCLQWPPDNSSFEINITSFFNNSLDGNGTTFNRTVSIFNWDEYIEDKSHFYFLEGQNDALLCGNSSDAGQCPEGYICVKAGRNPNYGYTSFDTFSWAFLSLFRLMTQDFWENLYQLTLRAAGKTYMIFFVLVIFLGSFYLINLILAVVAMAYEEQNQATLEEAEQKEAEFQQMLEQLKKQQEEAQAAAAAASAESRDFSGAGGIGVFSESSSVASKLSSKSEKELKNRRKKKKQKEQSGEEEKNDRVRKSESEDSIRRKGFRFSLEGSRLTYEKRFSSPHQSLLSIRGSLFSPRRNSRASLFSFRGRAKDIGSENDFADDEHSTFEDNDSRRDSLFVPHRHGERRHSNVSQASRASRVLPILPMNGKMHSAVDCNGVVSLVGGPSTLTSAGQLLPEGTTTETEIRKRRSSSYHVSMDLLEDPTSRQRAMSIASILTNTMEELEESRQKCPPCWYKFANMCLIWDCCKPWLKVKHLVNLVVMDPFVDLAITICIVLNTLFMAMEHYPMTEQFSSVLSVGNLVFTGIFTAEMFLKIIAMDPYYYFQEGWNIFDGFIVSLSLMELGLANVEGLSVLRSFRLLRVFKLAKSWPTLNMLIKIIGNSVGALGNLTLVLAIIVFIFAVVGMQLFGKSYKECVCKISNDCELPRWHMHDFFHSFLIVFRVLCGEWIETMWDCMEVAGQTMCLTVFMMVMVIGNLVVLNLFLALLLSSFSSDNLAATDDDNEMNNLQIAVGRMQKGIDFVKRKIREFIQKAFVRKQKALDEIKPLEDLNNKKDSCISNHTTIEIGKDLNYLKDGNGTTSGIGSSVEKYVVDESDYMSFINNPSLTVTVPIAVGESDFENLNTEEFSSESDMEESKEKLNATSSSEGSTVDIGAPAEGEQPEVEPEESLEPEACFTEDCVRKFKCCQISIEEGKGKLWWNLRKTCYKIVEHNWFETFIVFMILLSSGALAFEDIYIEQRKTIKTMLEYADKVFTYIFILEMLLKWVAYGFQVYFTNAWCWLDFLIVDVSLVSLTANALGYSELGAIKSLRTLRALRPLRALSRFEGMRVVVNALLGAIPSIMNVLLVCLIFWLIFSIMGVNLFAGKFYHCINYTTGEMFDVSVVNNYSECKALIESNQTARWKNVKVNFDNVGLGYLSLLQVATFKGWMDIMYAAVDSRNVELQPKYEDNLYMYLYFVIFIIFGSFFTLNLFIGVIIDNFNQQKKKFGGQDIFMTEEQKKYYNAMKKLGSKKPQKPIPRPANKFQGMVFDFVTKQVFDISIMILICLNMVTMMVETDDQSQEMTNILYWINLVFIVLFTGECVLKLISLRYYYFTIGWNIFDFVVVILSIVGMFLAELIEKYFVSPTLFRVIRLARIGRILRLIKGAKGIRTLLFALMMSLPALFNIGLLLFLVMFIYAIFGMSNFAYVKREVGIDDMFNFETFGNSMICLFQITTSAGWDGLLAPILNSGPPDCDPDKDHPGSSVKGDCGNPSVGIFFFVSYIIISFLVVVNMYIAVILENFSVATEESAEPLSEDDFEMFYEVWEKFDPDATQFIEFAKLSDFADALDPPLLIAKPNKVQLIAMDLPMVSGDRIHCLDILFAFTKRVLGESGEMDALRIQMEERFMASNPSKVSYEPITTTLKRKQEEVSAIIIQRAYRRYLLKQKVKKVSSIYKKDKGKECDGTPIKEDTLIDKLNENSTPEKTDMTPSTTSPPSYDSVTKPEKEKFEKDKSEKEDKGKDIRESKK
T2 sequence (P25101 21-427): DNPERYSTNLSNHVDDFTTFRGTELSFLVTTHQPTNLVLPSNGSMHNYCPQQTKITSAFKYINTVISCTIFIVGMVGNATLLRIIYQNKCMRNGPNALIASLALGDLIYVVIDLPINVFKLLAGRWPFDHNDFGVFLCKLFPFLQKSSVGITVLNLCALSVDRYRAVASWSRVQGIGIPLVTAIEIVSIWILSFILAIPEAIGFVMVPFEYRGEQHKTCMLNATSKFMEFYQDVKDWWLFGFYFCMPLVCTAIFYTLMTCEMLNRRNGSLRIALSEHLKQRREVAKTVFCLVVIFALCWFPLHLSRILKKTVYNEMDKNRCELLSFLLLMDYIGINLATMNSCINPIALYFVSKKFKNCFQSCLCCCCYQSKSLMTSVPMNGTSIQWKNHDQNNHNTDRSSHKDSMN
T12 sequence (P32245 whole entry): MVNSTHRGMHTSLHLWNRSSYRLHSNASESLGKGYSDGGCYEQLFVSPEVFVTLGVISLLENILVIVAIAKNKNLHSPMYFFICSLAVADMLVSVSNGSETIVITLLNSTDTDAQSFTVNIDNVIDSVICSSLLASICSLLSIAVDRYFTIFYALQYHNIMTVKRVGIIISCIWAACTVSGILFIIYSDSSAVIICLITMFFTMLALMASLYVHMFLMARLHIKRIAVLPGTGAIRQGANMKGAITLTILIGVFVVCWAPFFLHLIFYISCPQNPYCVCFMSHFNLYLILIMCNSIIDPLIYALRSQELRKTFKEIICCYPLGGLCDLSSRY
T7 sequence (P43116 whole entry): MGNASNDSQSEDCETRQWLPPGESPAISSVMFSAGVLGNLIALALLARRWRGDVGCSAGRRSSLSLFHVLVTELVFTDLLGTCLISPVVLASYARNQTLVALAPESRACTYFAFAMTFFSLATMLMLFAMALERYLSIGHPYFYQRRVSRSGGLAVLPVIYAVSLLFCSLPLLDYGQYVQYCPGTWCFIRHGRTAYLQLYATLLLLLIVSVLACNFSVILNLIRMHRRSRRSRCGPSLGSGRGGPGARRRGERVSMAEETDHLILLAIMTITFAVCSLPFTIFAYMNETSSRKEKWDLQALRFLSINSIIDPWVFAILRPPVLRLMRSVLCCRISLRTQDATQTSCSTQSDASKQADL
T6 sequence (P07550 whole entry): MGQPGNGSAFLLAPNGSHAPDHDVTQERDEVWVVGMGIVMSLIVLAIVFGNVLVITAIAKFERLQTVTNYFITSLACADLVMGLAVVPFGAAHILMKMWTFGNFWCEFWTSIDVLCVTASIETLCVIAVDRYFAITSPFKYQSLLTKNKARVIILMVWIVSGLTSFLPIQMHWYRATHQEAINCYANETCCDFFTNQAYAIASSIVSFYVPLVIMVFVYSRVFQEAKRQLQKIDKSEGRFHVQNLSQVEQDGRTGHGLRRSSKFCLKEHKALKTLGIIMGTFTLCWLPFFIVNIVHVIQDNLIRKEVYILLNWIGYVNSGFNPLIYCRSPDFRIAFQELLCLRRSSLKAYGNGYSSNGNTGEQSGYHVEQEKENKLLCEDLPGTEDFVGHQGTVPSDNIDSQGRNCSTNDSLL
T4 sequence (P08588 whole entry): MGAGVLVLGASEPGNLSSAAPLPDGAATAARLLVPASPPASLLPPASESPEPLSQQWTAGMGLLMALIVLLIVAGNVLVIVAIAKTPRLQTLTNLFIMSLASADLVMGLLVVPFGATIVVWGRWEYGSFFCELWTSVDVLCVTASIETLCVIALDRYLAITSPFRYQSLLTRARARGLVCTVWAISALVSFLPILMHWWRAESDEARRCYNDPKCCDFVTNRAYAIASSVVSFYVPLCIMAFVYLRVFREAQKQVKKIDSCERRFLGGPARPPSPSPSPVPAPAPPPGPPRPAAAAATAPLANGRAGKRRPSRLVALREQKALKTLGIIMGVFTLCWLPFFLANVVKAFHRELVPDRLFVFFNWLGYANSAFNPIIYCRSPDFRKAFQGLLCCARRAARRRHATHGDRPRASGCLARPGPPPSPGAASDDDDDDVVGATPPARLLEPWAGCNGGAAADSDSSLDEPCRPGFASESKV
T8 sequence (P16257 whole entry): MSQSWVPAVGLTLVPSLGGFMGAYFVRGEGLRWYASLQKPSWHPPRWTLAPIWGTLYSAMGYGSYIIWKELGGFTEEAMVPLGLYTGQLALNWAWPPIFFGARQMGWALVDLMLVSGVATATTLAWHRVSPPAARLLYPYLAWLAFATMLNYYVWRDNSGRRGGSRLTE
T3 sequence (P25021 whole entry): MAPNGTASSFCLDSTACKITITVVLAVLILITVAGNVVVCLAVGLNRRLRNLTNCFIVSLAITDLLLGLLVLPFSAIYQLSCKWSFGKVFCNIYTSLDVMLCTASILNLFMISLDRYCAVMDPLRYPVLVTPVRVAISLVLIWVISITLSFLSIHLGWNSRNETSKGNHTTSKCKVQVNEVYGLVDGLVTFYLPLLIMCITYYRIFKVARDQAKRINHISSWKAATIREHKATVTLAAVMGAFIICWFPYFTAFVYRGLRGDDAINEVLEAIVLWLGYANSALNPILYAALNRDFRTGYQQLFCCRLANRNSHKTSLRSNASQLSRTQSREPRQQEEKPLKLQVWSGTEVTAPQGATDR
T5 sequence (P32241 31-457): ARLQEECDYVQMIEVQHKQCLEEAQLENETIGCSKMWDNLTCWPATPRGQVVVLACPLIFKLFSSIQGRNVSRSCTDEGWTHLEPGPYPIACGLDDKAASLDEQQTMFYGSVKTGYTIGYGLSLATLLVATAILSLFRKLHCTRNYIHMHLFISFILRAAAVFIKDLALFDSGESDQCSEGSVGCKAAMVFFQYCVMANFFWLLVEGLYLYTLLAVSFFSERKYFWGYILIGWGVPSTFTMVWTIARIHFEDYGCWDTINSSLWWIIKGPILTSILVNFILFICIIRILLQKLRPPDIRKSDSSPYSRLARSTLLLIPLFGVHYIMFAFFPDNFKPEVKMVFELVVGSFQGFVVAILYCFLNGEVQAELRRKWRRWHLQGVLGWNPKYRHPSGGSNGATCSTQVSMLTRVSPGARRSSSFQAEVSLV

Turning to `CCC(CO)NCCOc1c(C)cccc1Cl` (stereo not shown) [Compound 4, R,S-2-((2-(2-chloro-6-methylphenoxy)ethyl)amino)butan-1-ol], the “% of control specific binding” value stood at 124.5% in [1]; 130.9% in data set [2]; 90.3% in data set [3]; 96.5% in data set [4]; 64.4% in data set [5]; 117.9% in [6]. In addition, the “% of control specific binding” value in data set [7] was 85.1%; in data set [8], 75.4%; in data set [9] it was 75.1%; in [10], 123.5%; in data set [11] it was 97.0%; in data set [12] it was 107.7%. Also, the “% of control specific binding” value in data set [13] worked out at 92.0%.
Regarding `CCC(CO)NCCOc1c(C)cccc1Cl` (stereo not shown) [KM-408, R,S-2-((2-(2-chloro-6-methylphenoxy)ethyl)amino)butan-1-ol hydrochloride], the “effects on respiratory parameters” value in [14] is “No significant effects”. This molecule also gave a TD50 in data set [15] of 54.3 mg/kg. Further, the “effect on acetic acid-induced writhing” value in data set [16] is “not significantly effective”. Besides, the 50% inhibitory concentration (IC50) was 15.6 µM in data set [17] (10 Hz), under 10 µM in data set [17] (Inactivated state) and 48.7 µM in data set [17] (Tonic block).
